Results: US20070254910A1, “CHEMICAL COMPOUNDS” (priority 2004, published 2007)
pIC50: −log10 of the molar value.

tested on: HIV; experiment: HOS HIV anti-infectivity assay (strain not stated); assay type: cell-based; conditions: HOS HIV anti-infectivity assay; read-out: Activity Level
Protocol: Compounds were profiled against two HIV-1 viruses, the M-tropic (CCR5 utilizing) Ba-L strain and the T-tropic (CXCR4 utilizing) IIIB strain. Both viruses were propagated in human peripheral blood lymphocytes. Compounds were tested for there ability to block infection of the HOS cell line (expressing hCXCR4/hCCR5/hCD4/pHIV-LTR-luciferase) by either HIV-1 Ba-L or HIV-1 IIIB. Compound cytotoxicity was also examined in the absence of virus addition.
HOS cells (expressing hCXCR4/hCCR5/hCD4/pHIV-LTR-luciferase) were harvested and diluted in Dulbeccos modified Eagles media supplemented with 2% FCS and non-essential amino acid to a concentration of 60,000 cells/ml. The cells were plated into 96-well plates (100 ul per well) and the plates were placed in a tissue culture incubator (37° C.; 5% CO2/95% air) for a period of 24 h.
Subsequently, 50 ul of the desired drug solution (4 times the final concentration) was added to each well and the plates were returned to the tissue culture incubator (37° C.; 5% CO2/95% air) for 1 h. Following this incubation 50 ul of diluted virus was added to each well (approximately 2 million RLU per well of virus). The plates were returned to the tissue culture incubator (37° C.; 5% CO2/95% air) and were incubated for a further 96 h.
Following this incubation the endpoint for the virally infected cultures was quantified following addition of Steady-Glo Luciferase assay system reagent (Promega, Madison, Wis.). Cell viability or non-infected cultures was measured using a CellTiter-Glo luminescent cell viability assay system (Promega, Madison, Wis.). All luminescent readouts are performed on a Topcount luminescence detector (Packard, Meridien, Conn.).

Row | pIC50 | SMILES
1 | 6.30 to 7.00 | CN1CCN(c2cccc3nc(CN(C)C4CCCc5cccnc54)c(C(O)C(F)(F)F)n23)CC1 (stereo not drawn) [Example 89B, 2,2,2-Trifluoro-1-(5-(4-methyl-1-piperazinyl)-2-{[methyl(5,6,7,8-tetrahydro-8-quinolinyl)amino]methyl}imidazo[1,2-a]pyridin-3-yl)ethanol]

same assay, conditions: Human immunodeficiency virus 1, HOS HIV anti-infectivity assay; read-out: Activity Level

Row | pIC50 | SMILES
2 | > 7.00 | CN(C)[C@@H]1CCN(c2cccc3nc(CN(C)[C@H]4CCCc5cccnc54)c(CO)n23)C1 [Example 46, [5-[(3R)-3-(Dimethylamino)-1-pyrrolidinyl]-2-({methyl[(8S)-5,6,7,8-tetrahydro-8-quinolinyl]amino}methyl)imidazo[1,2-a]pyridin-3-yl]methanol]
3 | > 7.00 | CN(Cc1nc2cccc(N3CCCNCC3)n2c1CO)[C@H]1CCCc2cccnc21 [Example 48, [5-(Hexahydro-1H-1,4-diazepin-1-yl)-2-({methyl[(8S)-5,6,7,8-tetrahydro-8-quinolinyl]amino}methyl)imidazo[1,2-a]pyridin-3-yl]methanol]
4 | > 7.00 | CN1CCCN(c2cccc3nc(CN(C)[C@H]4CCCc5cccnc54)c(CO)n23)CC1 [Example 50, [5-(4-Methylhexahydro-1H-1,4-diazepin-1-yl)-2-({methyl[(8S)-5,6,7,8-tetrahydro-8-quinolinyl]amino}methyl)imidazo[1,2-a]pyridin-3-yl]methanol]
5 | > 7.00 | CN1CCC(N(C)c2cccc3nc(CN(C)[C@H]4CCCc5cccnc54)c(CO)n23)C1 (stereo partly drawn) [Example 52, [5-[Methyl(1-methyl-3-pyrrolidinyl)amino]-2-({methyl[(8S)-5,6,7,8-tetrahydro-8-quinolinyl]amino}methyl)imidazo[1,2-a]pyridin-3-yl]methanol]
6 | > 7.00 | CCN1CCN(c2cccc3nc(CN(C)[C@H]4CCCc5cccnc54)c(CO)n23)CC1 [Example 54, [5-(4-Ethyl-1-piperazinyl)-2-({methyl[(8S)-5,6,7,8-tetrahydro-8-quinolinyl]amino}methyl)imidazo[1,2-a]pyridin-3-yl]methanol]
7 | > 7.00 | CC(C)N1CCN(c2cccc3nc(CN(C)[C@H]4CCCc5cccnc54)c(CO)n23)CC1 [Example 56, [5-[4-(1-Methylethyl)-1-piperazinyl]-2-({methyl[(8S)-5,6,7,8-tetrahydro-8-quinolinyl]amino}methyl)imidazo[1,2-a]pyridin-3-yl]methanol]
8 | > 7.00 | CN(C)[C@H]1CCN(c2cccc3nc(CN(C)[C@H]4CCCc5cccnc54)c(CO)n23)C1 [Example 58, [5-[(3S)-3-(Dimethylamino)-1-pyrrolidinyl]-2-({methyl[(8S)-5,6,7,8-tetrahydro-8-quinolinyl]amino}methyl)imidazo[1,2-a]pyridin-3-yl]methanol]
9 | > 7.00 | CN(Cc1nc2cccc(N3CC[C@@H](N)C3)n2c1CO)[C@H]1CCCc2cccnc21 [Example 60, [5-[(3R)-3-Amino-1-pyrrolidinyl]-2-({methyl[(8S)-5,6,7,8-tetrahydro-8-quinolinyl]amino}methyl)imidazo[1,2-a]pyridin-3-yl]methanol]
10 | > 7.00 | CN[C@@H]1CCN(c2cccc3nc(CN(C)[C@H]4CCCc5cccnc54)c(CO)n23)C1 [Example 63, [5-[(3R)-3-(Methylamino)-1-pyrrolidinyl]-2-({methyl[(8S)-5,6,7,8-tetrahydro-8-quinolinyl]amino}methyl)imidazo[1,2-a]pyridin-3-yl]methanol]
11 | > 7.00 | CCN(Cc1nc2cccc(N3CC[C@@H](N(C)C)C3)n2c1CO)[C@H]1CCCc2cccnc21 [Example 66, [5-[(3R)-3-(Dimethylamino)-1-pyrrolidinyl]-2-({ethyl[(8S)-5,6,7,8-tetrahydro-8-quinolinyl]amino}methyl)imidazo[1,2-a]pyridin-3-yl]methanol]
12 | > 7.00 | CCCN(Cc1nc2cccc(N3CC[C@@H](N(C)C)C3)n2c1CO)[C@H]1CCCc2cccnc21 [Example 68, [5-[(3R)-3-(Dimethylamino)-1-pyrrolidinyl]-2-({propyl[(8S)-5,6,7,8-tetrahydro-8-quinolinyl]amino}methyl)imidazo[1,2-a]pyridin-3-yl]methanol]
13 | > 7.00 | CC(C)N(Cc1nc2cccc(N3CC[C@@H](N(C)C)C3)n2c1CO)[C@H]1CCCc2cccnc21 [Example 70, [5-[(3R)-3-(Dimethylamino)-1-pyrrolidinyl]-2-({(1-methylethyl)[(8S)-5,6,7,8-tetrahydro-8-quinolinyl]amino}methyl)imidazo[1,2-a]pyridin-3-yl]methanol]
14 | > 7.00 | CN(C)[C@@H]1CCN(c2cccc3nc(CN(CC4CC4)[C@H]4CCCc5cccnc54)c(CO)n23)C1 [Example 72, {2-({(Cyclopropylmethyl)[(8S)-5,6,7,8-tetrahydro-8-quinolinyl]amino}methyl)-5-[(3R)-3-(dimethylamino)-1-pyrrolidinyl]imidazo[1,2-a]pyridin-3-yl}methanol]
15 | > 7.00 | CN(Cc1nc2cccc(N3CCC(N)CC3)n2c1CO)[C@H]1CCCc2cccnc21 [Example 76, [5-(4-Amino-1-piperidinyl)-2-({methyl[(8S)-5,6,7,8-tetrahydro-8-quinolinyl]amino}methyl)imidazo[1,2-a]pyridin-3-yl]methanol]
16 | > 7.00 | CN(C)CCOc1cccc2nc(CN(C)[C@H]3CCCc4cccnc43)c(CO)n12 [Example 78, [5-{[2-(Dimethylamino)ethyl]oxy}-2-({methyl[(8S)-5,6,7,8-tetrahydro-8-quinolinyl]amino}methyl)imidazo[1,2-a]pyridin-3-yl]methanol]
17 | > 7.00 | CN(Cc1nc2cccc(OCCN3CCCC3)n2c1CO)[C@H]1CCCc2cccnc21 [Example 80, (2-({Methyl[(8S)-5,6,7,8-tetrahydro-8-quinolinyl]amino}methyl)-5-{[2-(1-pyrrolidinyl)ethyl]oxy}imidazo[1,2-a]pyridin-3-yl)methanol]
18 | > 7.00 | CN(Cc1nc2cccc(OCCN3CCCCC3)n2c1CO)[C@H]1CCCc2cccnc21 [Example 82, (2-({Methyl[(8S)-5,6,7,8-tetrahydro-8-quinolinyl]amino}methyl)-5-{[2-(1-piperidinyl)ethyl]oxy}imidazo[1,2-a]pyridin-3-yl)methanol]
19 | > 7.00 | CC(O)c1c(CN(C)[C@H]2CCCc3cccnc32)nc2cccc(N3CCN(C)CC3)n12 (stereo partly drawn) [Example 84, 1-[5-(4-Methyl-1-piperazinyl)-2-({methyl[(8S)-5,6,7,8-tetrahydro-8-quinolinyl]amino}methyl)imidazo[1,2-a]pyridin-3-yl]ethanol]
20 | > 7.00 | CCC(O)c1c(CN(C)[C@H]2CCCc3cccnc32)nc2cccc(N3CCN(C)CC3)n12 (stereo partly drawn) [Example 85, 1-[5-(4-Methyl-1-piperazinyl)-2-({methyl[(8S)-5,6,7,8-tetrahydro-8-quinolinyl]amino}methyl)imidazo[1,2-a]pyridin-3-yl]-1-propanol]
21 | > 7.00 | COCc1c(CN(C)[C@H]2CCCc3cccnc32)nc2cccc(N3CCN(C)CC3)n12 [Example 86, (8S)—N-Methyl-N-{[3-[(methyloxy)methyl]-5-(4-methyl-1-piperazinyl)imidazo[1,2-a]pyridin-2-yl]methyl}-5,6,7,8-tetrahydro-8-quinolinamine]
22 | > 7.00 | CCOCc1c(CN(C)[C@H]2CCCc3cccnc32)nc2cccc(N3CCN(C)CC3)n12 [Example 87, (8S)—N-{[3-[(Ethyloxy)methyl]-5-(4-methyl-1-piperazinyl)imidazo[1,2-a]pyridin-2-yl]methyl}-N-methyl-5,6,7,8-tetrahydro-8-quinolinamine]
23 | > 7.00 | CC(c1nc2cccc(N3CCN(C)CC3)n2c1CO)N(C)[C@H]1CCCc2cccnc21 (stereo partly drawn) [Example 88, [5-(4-Methyl-1-piperazinyl)-2-(1-{methyl[(8S)-5,6,7,8-tetrahydro-8-quinolinyl]amino}ethyl)imidazo[1,2-a]pyridin-3-yl]methanol]
24 | > 7.00 | CN1CCN(c2cccc3nc(CN(C)C4CCCc5cccnc54)c(C(O)C(F)(F)F)n23)CC1 (stereo not drawn) [Example 89A, 2,2,2-Trifluoro-1-(5-(4-methyl-1-piperazinyl)-2-{[methyl(5,6,7,8-tetrahydro-8-quinolinyl)amino]methyl}imidazo[1,2-a]pyridin-3-yl)ethanol]
